The values that follow come from patent US4954510A, “Antiviral agent containing lactam compound” (Meiji Seika Kaisha, Ltd., priority 1987, dated 1990).

The test system of one data set is HIV. Kind of data set: in vitro anti-HIV activity: decrease in the cytocidal effect of HIV on MT-2 cells. Format: cell-based. The conditions noted are these: for EC50: Human immunodeficiency virus 1, MT2, 168 h, read-out: EC50 (concentration giving a 50% decrease in the cytocidal effect of HIV); for TI50 (IC50/EC50): ratio IC50/EC50, 10080 min. As for the experimental part: (§1) Namely, the host human T-lymphotropic MT-2 cell line is transplanted on a microtiter plate and a series of dilutions of the test compounds shown in the table below are added with or without addition of HIV, followed by incubation for 7 days. For evaluation, the residual viable cell count is then determined by colorimetry.
(§2) In the above table, EC50 means the concentration of the test compound giving a 50% decrease in the cytocidal effect of HIV and IC50 means the concentration of the test compound giving a 50% inhibition of growth of normal non-infected cells.

Data set [1] in a line: inhibition of growth of normal non-infected cells (MT-2). The class given is cell-based, human. As to conditions: human; MT-2 cells without HIV, 7 days, viable cell count by colorimetry; read-out: IC50 (concentration giving a 50% inhibition of growth of normal non-infected cells). The method, then: as §1, §2
The nature of data set [2]: acute toxicity (LD50) in mice. The conditions noted are these: mouse, in vivo. The method, then:
The LD50 value of D-glucaro-δ-lactam sodium salt in mice is not less than 3 g/kg by the intraveous injection and not less than 5 g/kg by the oral administration. The LD50 value of D-glucaro-δ-lactam methyl ester in mice is not less than 5 g/kg by the intraveous injection and not less than 10 g/kg by the oral administration. With respect to 6-O-triphenylmethyl-D-gluco-δ-lactam, the LD50 value is not less than 300 mg/kg in case of the subcutaneous administration in mice.

Data set [3] has as its system human T-lymphotropic MT-2 cell line. The data set can be described thus: inhibition of growth of normal non-infected cells (MT-2). Format: cell-based. The conditions noted are these: Homo sapiens, MT2, 168 h; MT-2 cells without HIV, 7 days, viable cell count by colorimetry; read-out: IC50 (concentration giving a 50% inhibition of growth of normal non-infected cells). As for the experimental part: as §1, §2

Another data set relates to AIDS patients. As to conditions: in words, cited from earlier work.

The structures appear in SMILES notation. ≈ marks a conversion by molar mass, not a printed value. Where a name gives a salt, the structure may show the parent alone. Read-outs that look alike come from different tables or passages of the source.

In general, LD50 refers to the dose at which mortality reaches 50%. `O=C1N[C@H](COC(c2ccccc2)(c2ccccc2)c2ccccc2)[C@@H](O)[C@H](O)[C@H]1O` [6-O-triphenylmethyl-D-gluco-δ-lactam]: in the data set on HIV, the EC50 is 0.0386 ng/mL (≈ 9.2e-05 µM) and the “TI50 (IC50/EC50)” value is recorded as 8.19 × 10^5. Moreover, in data set [1], the CC50 at 168 h turned out to be 31.7 µg/mL (≈ 75.6 µM). In data set [2] (sc, subcutaneous administration), the LD50 is not below 300 mg/kg.

Regarding `O=C(O)[C@H]1NC(=O)[C@H](O)[C@@H](O)[C@@H]1O` [D-glucaro-δ-lactam calcium salt], the EC50 in the data set on HIV (MT-2 cells, with HIV, 7 days, viable cell count by colorimetry) is less than 0.25 ng/mL. For the same molecule, the “TI50 (IC50/EC50)” value in the data set on HIV is given as > 1.00 × 10^6. Also, the IC50 in data set [3] is more than 250 µg/mL.

With `COC(=O)[C@H]1NC(=O)[C@H](O)[C@@H](O)[C@@H]1O` [D-glucaro-δ-lactam methyl ester], the LD50 in data set [2] (intravenous injection) is not below 5000 mg/kg; in data set [2] (oral administration) it was not below 10000 mg/kg.

`O=C(O)[C@H]1NC(=O)[C@H](O)[C@@H](O)[C@@H]1O` [D-glucaro-δ-lactam sodium salt]: the LD50 was not below 3000 mg/kg in data set [2] (intravenous injection) and not below 5000 mg/kg in data set [2] (oral administration).

As for `Cc1cn([C@H]2C[C@H](N=[N+]=[N-])[C@@H](CO)O2)c(=O)[nH]c1=O` [azidothymidine (AZT), azidothymidine], the “side effects in clinical application” value with AIDS patients (listed as AZT) was “side effects of AZT on bone marrow”; with AIDS patients, “serious side effects such as bone marrow depression, anemia and neurologic disorders such as headache and convulsion”.
